We go through 7 molecules from patent US11332485B2, “Penicillin-binding protein inhibitors” (priority 2017, dated 2022).

pEC50: −log10 of the molar value. Bounds are passed on as bounds.

Assay [1] deals with T1, PBP3 from Escherichia coli (Escherichia coli, UniProt P0AD68).
T1 construct: made in house
The experiment in a line: Fluorescence polarization competition binding assay with Bocillin-FL. The essentials: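 Fluorescence polarization competition assay with Bocillin-FL at 0.1 μM final and purified E. coli PBP3 at 1.5 μM final in 50 mM Hepes pH 8.0, 300 mM NaCl, 5% glycerol. Inhibitor preincubated with PBP3 for 30 min before probe addition; FP then read continuously for 60 min. Potency reported in binned categories.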

In assay [2] the target is T2, PBP1b from Escherichia coli (Escherichia coli, UniProt P02919).
T2 construct: made in house
T2 sequence (P02919 whole entry): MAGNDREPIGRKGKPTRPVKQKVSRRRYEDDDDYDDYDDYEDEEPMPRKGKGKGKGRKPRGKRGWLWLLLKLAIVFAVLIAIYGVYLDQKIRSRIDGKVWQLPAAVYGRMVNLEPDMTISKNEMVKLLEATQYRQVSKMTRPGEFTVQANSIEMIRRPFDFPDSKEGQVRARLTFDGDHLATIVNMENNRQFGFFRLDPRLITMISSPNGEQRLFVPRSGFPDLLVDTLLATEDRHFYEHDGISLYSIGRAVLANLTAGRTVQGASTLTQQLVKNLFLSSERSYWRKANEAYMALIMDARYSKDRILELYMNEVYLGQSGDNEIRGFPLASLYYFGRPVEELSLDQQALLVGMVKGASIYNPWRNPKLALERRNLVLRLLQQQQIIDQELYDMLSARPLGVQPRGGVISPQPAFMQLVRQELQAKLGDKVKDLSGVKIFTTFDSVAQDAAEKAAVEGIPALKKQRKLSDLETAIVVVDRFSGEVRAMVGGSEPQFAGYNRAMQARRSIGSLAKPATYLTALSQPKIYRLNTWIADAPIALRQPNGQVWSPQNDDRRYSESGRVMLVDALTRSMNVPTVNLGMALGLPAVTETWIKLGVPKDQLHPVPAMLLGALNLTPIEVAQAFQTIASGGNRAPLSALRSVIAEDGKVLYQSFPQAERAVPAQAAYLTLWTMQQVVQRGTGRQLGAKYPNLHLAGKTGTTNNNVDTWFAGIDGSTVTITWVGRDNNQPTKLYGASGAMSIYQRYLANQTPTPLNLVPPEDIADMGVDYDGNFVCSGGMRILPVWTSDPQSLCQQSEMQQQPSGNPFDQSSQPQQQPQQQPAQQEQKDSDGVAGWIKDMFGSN
As to the kind of experiment: Radioligand competition binding assay with 14C-labeled boronic acid probe (Example 96). Particulars: 14C-labeled probe 96 at 20 μM, PBP 0.1 μM; read-out: E. coli K12 PBP1b EC50. An excerpt:
(§1) To determine the ability of boronic acid-based test PBP inhibitors to bind Penicillin Binding Proteins (PBPs), a radio-labelled boronic acid PBP inhibitor (Example 96) was used in competition binding assays to determine boronic acid PBP inhibitor binding to PBP1a or PBP1b from Escherichia coli. PBP1a and PBP1b were purified as described previously (Bertsche, U.; et al., J. Biol. Chem. 2005, 280 (45), 38096-38101; Born, P.; et al., J Biol. Chem. 2006. 281 (37), 26985-26993). To establish assay conditions for competition binding, an enzyme titration/saturation binding experiment was performed. Saturation binding was performed in a buffer comprised of 20 mM Tris (pH 7.5), 500 mM NaCl and 0.1% (v/v) TritonX-100, with PBP1a/PBP1b at a final concentration of 0.1 μM and 96 at final concentrations ranging from 0-100 μM. Mixtures were incubated for 60 minutes, then applied to Zeba Spin Desalting columns or plates (ThermoFisher Scientific) and centrifuged at 1000-1500×g for 2 minutes. The flow through, containing PBP bound with 96, was recovered and 100 μL mixed with 5 mL of UltimaGold liquid scintillation cocktail (Perkin Elmer), and the radioactivity counted using a Beckman Coulter LS 6500 Multipurpose scintillation counter. PBP binding of 96 approached saturation at 20 μM of ^14C-labeled probe. The competition binding assay was validated using the beta-lactam ampicillin, with 96 at a final concentration of 20 μM, PBP1a/PBP1b at a final concentration of 0.1 μM. PBP1a/PBP1b was incubated with ampicillin in a 96-well microplate for 60 minutes, then 96 was added and the mixtures incubated for an additional 60 minutes. The mixtures were then applied to Zeba Spin desalting plates and centrifuged at 1000×g for 2 minutes. The flow through was recovered and 100 μl mixed with 5 ml of UltimaGold liquid scintillation cocktail and the radioactivity counted. Ampicillin inhibited binding of 96 with an EC50 (the concentration of inhibitor required to reduce binding of 96 by 50%) of less than 0.5 μM. Binding assays with boronic acid PBP inhibitors were performed in an identical fashion. The potency of boronic acid PBP inhibitors was reported as the EC50 value.
(§2) Representative results are shown in Table 5, where A represents a potency of >100 μM, B represents a potency between 10 μM and 100 μM inclusive, and C represents a potency of <10 μM. NT=Not Tested.
For orientation: Displacement assays read how much labelled ligand stays bound in the presence of the test substance.

The subject of assay [3] is S. aureus ATCC 29213. As to the kind of experiment: Broth microdilution MIC assay. Format: cell-based. Particulars: Staphylococcus aureus, ATCC29213; broth microdilution, 16-20 hours at 37° C.; read-out: S. aureus 29213 MIC. The essentials: (§3)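 Growth inhibition is measured by CLSI broth microdilution. Log-phase bacteria (5×10^5 CFU/mL starting density) are incubated with 2-fold compound dilutions in cation-supplemented MH broth for 16-20 hours at 37° C, and the MIC is scored visually.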
Background: Dilution methods test growth across graded concentrations, often in twofold steps.

The subject of assay [4] is hyper-permeable E. coli 901C. As to the kind of experiment: Broth microdilution MIC assay. Format: cell-based. Particulars: Escherichia coli, read-out: E. coli 901C MIC. An outline of the steps:
as §3

Assay [5] concerns E. coli DH5α/pLBII. The experiment in a line: Broth microdilution MIC assay, empty vector control strain. Format: cell-based. As to conditions: Escherichia coli, read-out: E. coli DH5α/pLBII Microbiological Activity (MIC). An outline of the steps: (§4)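 CLSI broth microdilution in cation-supplemented Mueller-Hinton broth, 2-fold compound dilutions, 5×10^5 CFU/mL inoculum, 16-20 h at 37° C, MIC read visually as lowest concentration without growth. E. coli DH5α carries CTX-M15 on pLBII under Lac promoter, or empty pLBII as control.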

In assay [6] the test system is E. coli DH5α/pLBII-CTX-M15. As to the kind of experiment: Broth microdilution MIC assay, engineered strain producing CTX-M15. The assay is classed as cell-based, Escherichia coli. As to conditions: Escherichia coli, read-out: E. coli DH5α/pLBII-CTX-M15 Microbiological Activity (MIC). An outline of the steps: as §4
Assay [7] addresses T3, E. coli K12 PBP1a (Escherichia coli, UniProt P02918).
T3 construct: 100 μg's of total membrane protein extracts containing PBPs; endogenous in cells; host or cells: Escherichia coli K12 membrane fraction
The experiment in a line: Bocillin FL competition binding assay (SDS-PAGE gel, membrane PBPs). As to conditions: 15 min. pre-incubation, membrane protein extracts, SDS-PAGE fluorescence scan. On the procedure: (§5) To determine the ability of test compounds to bind Penicillin Binding Proteins (PBPs), a competition binding assay using Bocillin FL (fluorescent derivative of penicillin V) was adapted from the classical method used to assess PBP potency of beta-lactams.
(§6) Penicillin binding proteins were isolated from Escherichia coli K12 by growth of Escherichia coli K12 from a single colony in 4 L of Luria-Bertani (LB) broth at 35° C. and 250 rpm to an OD600 nm of 0.5. The cells were harvested by centrifugation at 7,000×g for 10 min. at 4° C. Cells were resuspended and washed in 50 mM potassium phosphate pH 7.5. The cells were re-suspended in sonication buffer [50 mM Tris-HCl pH 7.5, 1 mM MgCl2, 1 mM beta-mercaptoethanol, and 5 μg/mL DNAse I] and sonicated by 4 passes of 30 seconds at 45 W on ice. The sample was clarified by centrifugation at 3,000×g to remove cell debris and unbroken cells and supernatant containing the membrane proteins was retained. The membrane proteins including the PBPs were further purified from soluble constituents by an ultracentrifugation step at 100,000×g for 30 min. at 4° C. The membrane proteins are washed twice with 10 mM sodium phosphate pH 7, resuspended in a volume of 5 mL, quantitated by BCA assay, adjusted to […] and frozen at −80° C. until use.
(§7) The adapted Bocillin FL competition binding assay described herein incorporates a 15 min. pre-incubation of test compound with isolated PBPs to attempt to balance the difference in mechanism of inhibition between beta-lactams (largely irreversible covalent bond to active site Serine) and the boron-containing PBP inhibitor test compounds (reversible covalent bond to active site Serine). Briefly, 50 μL reactions consisted of 100 μg's of total membrane protein extracts containing PBPs incubated with a dilution series of test compound ranging from 0.005 μg/mL to 2,480 μg/mL in 10 mM sodium phosphate pH7 containing 350 mM NaCl. Thirty minute reactions at 35° C. were initiated by addition of […] Bocillin FL, quenched by addition of SDS-PAGE loading buffer containing sodium dodecyl sulfate (SDS) and heated for 15 minutes at 95° C. to denature proteins in preparation for SDS-polyacrylamide gel electrophoresis. The Bocillin FL labeled PBPs are then separated by SDS-PAGE in Novex NuPage 10% Bis-Tris pre-cast gels (Invitrogen). The SDS-PAGE gel, post-electrophoresis, is then washed in water to remove excess SDS for 10 minutes at room temperature and placed on the scanning bed of a GE Healthcare/Amersham Biosciences Storm 860 fluorescence scanner. […] Effective PBP inhibitors are detected by a reduction in Bocillin FL labeling of the particular PBP over the dose range of test compound in a dose-responsive manner. […]

Assay [8] has as its target T4, E. coli PBP3 (Escherichia coli, UniProt P0AD68).
T4 construct: 100 μg's of total membrane protein extracts containing PBPs; endogenous in cells; host or cells: Escherichia coli K12 membrane fraction
The assay is described as above. Particulars: 15 min. pre-incubation, membrane protein extracts, SDS-PAGE fluorescence scan. How it is done:
as §5, §6, §7

Assay [9] deals with E. coli PBP1b. The assay is described as above. As to conditions: 15 min. pre-incubation, membrane protein extracts, SDS-PAGE fluorescence scan. Also on record: species or system Escherichia coli. How it is done: as §5
Penicillin binding proteins were isolated from Escherichia coli K12 by growth of Escherichia coli K12 from a single colony in 4 L of Luria-Bertani (LB) broth at 35° C. and 250 rpm to an OD600 nm of 0.5. The cells were harvested by centrifugation at 7,000×g for 10 min. at 4° C. Cells were resuspended and washed in 50 mM potassium phosphate pH 7.5. […] The membrane proteins are washed twice with 10 mM sodium phosphate pH 7, resuspended in a volume of 5 mL, quantitated by BCA assay, adjusted to 10 μg/mL and frozen at −80° C. until use.
The adapted Bocillin FL competition binding assay described herein incorporates a 15 min. pre-incubation of test compound with isolated PBPs to attempt to balance the difference in mechanism of inhibition between beta-lactams (largely irreversible covalent bond to active site Serine) and the boron-containing PBP inhibitor test compounds (reversible covalent bond to active site Serine). […] The SDS-PAGE gel, post-electrophoresis, is then washed in water to remove excess SDS for 10 minutes at room temperature and placed on the scanning bed of a GE Healthcare/Amersham Biosciences Storm 860 fluorescence scanner. […]

Assay [10] has as its target T5, PBP1a from Escherichia coli (Escherichia coli, UniProt P02918).
T5 construct: made in house
The experiment in a line: Radioligand competition binding assay with 14C-labeled boronic acid probe (Example 96). As to conditions: 14C-labeled probe 96 at 20 μM, PBP 0.1 μM; read-out: E. coli K12 PBP1a EC50.
Description: as §1, §2

T1 sequence (P0AD68 1-577): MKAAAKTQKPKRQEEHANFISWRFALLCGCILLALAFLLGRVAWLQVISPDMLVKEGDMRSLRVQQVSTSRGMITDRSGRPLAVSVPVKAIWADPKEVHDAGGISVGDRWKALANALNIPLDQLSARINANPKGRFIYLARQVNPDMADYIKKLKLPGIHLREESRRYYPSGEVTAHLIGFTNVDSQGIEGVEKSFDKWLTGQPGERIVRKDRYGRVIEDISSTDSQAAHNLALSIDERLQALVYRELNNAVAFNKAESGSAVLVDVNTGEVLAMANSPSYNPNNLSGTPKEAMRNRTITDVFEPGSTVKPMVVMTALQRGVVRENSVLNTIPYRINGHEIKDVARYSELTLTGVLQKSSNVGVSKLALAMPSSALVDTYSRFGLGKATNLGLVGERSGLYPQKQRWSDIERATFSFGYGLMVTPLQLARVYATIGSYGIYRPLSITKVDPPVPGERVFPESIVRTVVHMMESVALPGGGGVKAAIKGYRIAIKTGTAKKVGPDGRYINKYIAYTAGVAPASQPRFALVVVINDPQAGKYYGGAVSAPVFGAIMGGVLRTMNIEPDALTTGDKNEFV
T5 sequence (P02918 whole entry): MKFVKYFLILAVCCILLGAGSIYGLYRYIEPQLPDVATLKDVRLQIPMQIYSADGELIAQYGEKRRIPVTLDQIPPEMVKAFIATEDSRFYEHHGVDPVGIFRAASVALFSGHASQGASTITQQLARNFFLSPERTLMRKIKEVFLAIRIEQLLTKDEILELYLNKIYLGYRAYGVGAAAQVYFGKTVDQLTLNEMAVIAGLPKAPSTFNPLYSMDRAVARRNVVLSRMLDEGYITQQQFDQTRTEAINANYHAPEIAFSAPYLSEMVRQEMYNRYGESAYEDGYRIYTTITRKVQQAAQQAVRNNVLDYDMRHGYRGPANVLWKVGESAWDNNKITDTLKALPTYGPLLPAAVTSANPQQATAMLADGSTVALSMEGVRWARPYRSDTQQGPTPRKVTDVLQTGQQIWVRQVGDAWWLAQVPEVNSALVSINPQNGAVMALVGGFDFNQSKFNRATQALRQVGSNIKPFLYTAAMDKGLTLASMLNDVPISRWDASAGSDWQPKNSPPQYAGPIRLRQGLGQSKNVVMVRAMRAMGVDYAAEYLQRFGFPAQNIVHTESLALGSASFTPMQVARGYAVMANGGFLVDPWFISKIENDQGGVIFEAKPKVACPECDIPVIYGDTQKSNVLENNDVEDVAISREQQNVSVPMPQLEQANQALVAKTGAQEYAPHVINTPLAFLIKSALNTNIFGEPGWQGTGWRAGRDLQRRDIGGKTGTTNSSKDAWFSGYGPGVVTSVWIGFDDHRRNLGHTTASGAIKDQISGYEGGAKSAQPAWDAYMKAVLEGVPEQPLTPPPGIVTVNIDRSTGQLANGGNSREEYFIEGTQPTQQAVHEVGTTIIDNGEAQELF
T3 sequence (P02918 whole entry): as above
T4 sequence (P0AD68 1-577): as the sequence (P0AD68 1-577) above

`CCN1CCN(C(=O)N[C@@H](C(=O)N[C@H]2Cc3cccc(C(=O)O)c3OB2O)C(C)C)C(=O)C1=O` [Example 78, (R)-3-((R)-2-(4-ethyl-2,3-dioxopiperazine-1-carboxamido)-3-methylbutanamido)-2-hydroxy-3,4-dihydro-2H-benzo[e][1,2]oxaborinine-8-carboxylic acid]: the pEC50 (usually −log10 of the EC50, conventionally taken in molar units) is above 4.52 in assay [1] and above 5.00 in [2]. Also, the MIC in assay [3] was 64 to 128 µg/mL; in [4], below 64 µg/mL; in assay [5] it was 32 to 64 µg/mL; in assay [6], 32 to 64 µg/mL.
For `C[C@@H](O)[C@@H](NC(=O)N1CCN(CCF)C(=O)C1=O)C(=O)N[C@H]1Cc2cccc(C(=O)O)c2OB1O` [Example 91, (R)-3-((2R,3R)-2-(4-(2-fluoroethyl)-2,3-dioxopiperazine-1-carboxamido)-3-hydroxybutanamido)-2-hydroxy-3,4-dihydro-2H-benzo[e][1,2]oxaborinine-8-carboxylic acid], the pEC50 in [1] was below 3.30; in assay [2], above 5.00. Further, the MIC was above 128 µg/mL in assay [3], below 64 µg/mL in [4] and 8 to 16 µg/mL in assay [6].
Turning to `Nc1nc(C(NC(=O)N2CCN(CC3CC3)C(=O)C2=O)C(=O)N[C@H]2Cc3cccc(C(=O)O)c3OB2O)cs1` (stereo partly drawn) [Example 67, (3R)-3-(2-(2-aminothiazol-4-yl)-2-(4-(cyclopropylmethyl)-2,3-dioxopiperazine-1-carboxamido)acetamido)-2-hydroxy-3,4-dihydro-2H-benzo[e][1,2]oxaborinine-8-carboxylic acid], the pEC50 in assay [1] was 3.30 to 4.52; in assay [2] it was above 5.00. In addition, the MIC in [3] is 64 to 128 µg/mL; in assay [4], below 64 µg/mL; in [5], 32 to 64 µg/mL; in [6] it was 32 to 64 µg/mL.
`N[C@H](C(=O)N[C@H]1Cc2cccc(C(=O)O)c2OB1O)c1ccccc1` [Example 3, (R)-3-((S)-2-amino-2-phenylacetamido)-2-hydroxy-3,4-dihydro-2H-benzo[e][1,2]oxaborinine-8-carboxylic acid]: the “E. coliK12 PBP1a Potency” value in [7] was “B (B represents a potency between 64 and 1000 μg/mL inclusive)”. For the same molecule, in assay [8], the “E. coli PBP3 Potency” value is given as “A (A represents a potency of >1000 μg/mL)”. The “E. coli PBP1b Potency” value in [9] was “A (A represents a potency of >1000 μg/mL)”. The MIC in [3] is above 128 µg/mL; in assay [4], 64 to 128 µg/mL; in [5], 128 to 256 µg/mL; in [6], 128 to 256 µg/mL.
On to `Nc1nc(C(NS(N)(=O)=O)C(=O)N[C@H]2Cc3cccc(C(=O)O)c3OB2O)cs1` (stereo partly drawn) [Example 26, (3R)-3-(2-(2-aminothiazol-4-yl)-2-(sulfamoylamino)acetamido)-2-hydroxy-3,4-dihydro-2H-benzo[e][1,2]oxaborinine-8-carboxylic acid], for which the pEC50 in assay [1] was 3.30 to 4.52; in [10] it was above 5.00; in assay [2], 4.00 to 5.00. The MIC in [3] was above 128 µg/mL; in assay [4], below 64 µg/mL; in assay [5], 32 to 64 µg/mL; in [6] it was 32 to 64 µg/mL.
For the molecule `CCN1CCN(C(=O)N[C@H](C(=O)N[C@H]2Cc3cccc(C(=O)O)c3OB2O)[C@H](O)CO)C(=O)C1=O` [Example 73, (R)-3-((2S,3S)-2-(4-ethyl-2,3-dioxopiperazine-1-carboxamido)-3,4-dihydroxybutanamido)-2-hydroxy-3,4-dihydro-2H-benzo[e][1,2]oxaborinine-8-carboxylic acid], the negative-log EC50 (pEC50) in assay [1] was below 3.30; in [2] it was below 4.00. Further, the MIC was above 128 µg/mL in [3], above 128 µg/mL in assay [4], above 512 µg/mL in assay [5] and above 512 µg/mL in assay [6].
As to `CCN1CCN(C(=O)N[C@H](C)C(=O)N[C@H]2Cc3cccc(C(=O)O)c3OB2O)C(=O)C1=O` [Example 34, (R)-3-((R)-2-(4-Ethyl-2,3-dioxopiperazine-1-carboxamido)propanamido)-2-hydroxy-3,4-dihydro-2H-benzo[e][1,2]oxaborinine-8-carboxylic acid], the values for the pEC50 in [1], in [10] and in [2] were 3.30 to 4.52, 4.00 to 5.00 and above 5.00, respectively. The MIC in assay [3] was above 128 µg/mL; in assay [4] it was below 64 µg/mL; in [5], 128 to 256 µg/mL; in [6], 128 to 256 µg/mL.
